The experiment addresses α7 nAChR subtype (Rattus norvegicus, UniProt Q05941). The class given is binding. The following applies: read-out: KD of radioligand (saturation curves, one site model).

Drawing on US7186836B2 (priority 2002, dated 2007), this text covers Kd for one substance.

α7 nAChR subtype, sequence (Q05941 23-502 limits assumed): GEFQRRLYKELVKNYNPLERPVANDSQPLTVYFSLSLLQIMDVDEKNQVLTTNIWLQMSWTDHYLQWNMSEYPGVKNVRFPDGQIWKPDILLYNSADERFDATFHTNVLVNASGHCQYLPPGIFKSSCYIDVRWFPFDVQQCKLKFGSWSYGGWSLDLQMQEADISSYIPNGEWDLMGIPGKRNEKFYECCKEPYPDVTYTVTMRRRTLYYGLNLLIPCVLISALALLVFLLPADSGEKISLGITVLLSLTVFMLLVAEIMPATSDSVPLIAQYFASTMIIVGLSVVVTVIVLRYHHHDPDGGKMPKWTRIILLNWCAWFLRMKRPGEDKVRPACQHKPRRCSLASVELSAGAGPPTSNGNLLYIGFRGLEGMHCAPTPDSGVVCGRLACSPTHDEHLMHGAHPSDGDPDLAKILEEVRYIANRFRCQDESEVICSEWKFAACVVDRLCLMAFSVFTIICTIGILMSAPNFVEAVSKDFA

Regarding [^125I]-α-Bungarotoxin [[^125I]-α-BTX], the Kd was determined as 1.67 nM.
